Earlier results in PMC11238383, “A review on the cultivation, bioactive compounds, health-promoting factors and clinical trials of medicinal mushrooms Taiwanofungus camphoratus, Inonotus obliquus and Tropicoporus linteus” (Fungal Biology and Biotechnology, 2024).
≈ marks a conversion by molar mass, not a printed value. Like-named read-outs stand apart in the source and are kept apart here.

How the values were obtained:
[1] = tested on: Polyinosinic-polycytidylic acid (poly IC)-induced RAW 264.7 cells
[2] = tested on: P. gingivalis; details: ref [131], [132], [133]
[3] = tested on: Influenza A H1N1 virus; design: method as in Hwang et al. [13]; details: 10 uM; ref Hwang et al. [13]
[4] = target: H1N1 neuraminidase; details: ref [13]
[5] = for antioxidant activity: ref Lee et al. [226]; for reducing power: ref [133]
[6] = tested on: MDA-MB-231 cells; details: 10 µg/mL alone; ref [226]
[7] = tested on: human cancer cells (U251, HL60, SW480, and A549); details: ref [63]
[8] = tested on: normal cells (LO2); details: ref [63]
[9] = tested on: High-fat diet-induced C57BL/6J mice; design: method as in Lin et al. [175]; details: ref Lin et al. [175]
[10] = tested on: High-fat diet-induced C57BL/6J mice; design: method as in Lin et al. [175]; details: ref Lin et al. [175]; remark: listed apart in the source
[11] = tested on: Severe acute respiratory syndrome coronavirus 2 (SARS-CoV-2) virus-infected HepG2 cells; design: method as in Li et al. [35], [38]; details: ref Li et al. [35], [38]
[12] = tested on: MIN6N beta-cells; design: method as in Lee et al. [235]; details: 10–70 uM, dose-dependent, ref Lee et al. [235]
[13] = tested on: Oleic and palmitic acids (O/P) lipid accumulation-induced HepG2 cells; design: method as in Chiu et al. [138]; details: ref Chiu et al. [138]
[14] = tested on: AGS, MCF-7, and PC3 cancer cells; design: method as in PMID 32899899; details: ref [95]
[15] = tested on: NO; design: method as in Park et al. [99]; details: ref Park et al. [99]
[16] = tested on: mouse melanoma and human lung cancer cells; design: method as in PMID 18239302; details: ref [135]
[17] = tested on: U251 and MCF-7; design: method as in PMID 31891260; details: ref [61]
[18] = design: method as in PMID 31891260; details: ref [61]
[19] = tested on: human adenocarcinoma and human lung carcinoma cell lines; design: method as in doi:10.1016/j.jff.2020.104025; details: ref [97]
[20] = tested on: human glioblastoma cells; design: method as in Yang et al. [70]; details: in vitro; ref Yang et al. [70]
[21] = tested on: glioblastoma-xenografted mice; design: method as in Yang et al. [70]; details: in vivo; ref Yang et al. [70]
[22] = tested on: aldose reductase; design: method as in Lee et al. [136]; details: ref Lee et al. [136]
[23] = tested on: A549 and HeLa cell lines; details: ref [105]
[24] = tested on: H2O2)-injured human neuroblastoma cells; design: method as in PMID 33084385; details: ref [108]
[25] = design: method as in Zhang et al. [179]; details: DPPH assay; ref Zhang et al. [179]
[26] = tested on: inducible-nitric oxide synthase (iNOS) protein; design: method as in PMID 33434790; details: ref [107]

Compound: 4-acetylantroquinonol B
- IC50 ([1]; ref Tu et al. [186], read-out: IC50 of NO production): 0.57 µM
- NO production ([1]; ref [72]): significantly inhibited

Compound: C=C1CCCC(C)(C)C1CC/C(C)=C/CO (single isomer, unassigned; (-)) [(-)-trans-γ-monocyclofarnesol]
- antimicrobial activity [2]: antimicrobial effects

Compound: CC(=O)C=Cc1ccc(O)c(O)c1 [4-(3,4-Dihydroxyphenyl)-3-buten-2-one]
- visible cytopathic effects [3]: 10 uM of both inhibited the formation of visible cytopathic effects, with IC50 values lower than Oseltamivir
- IC50 [4]: 52 µM
- neuraminidase activity [4]: inhibit neuraminidase activity
- antioxidant activity [5]: Potent antioxidant activity, with higher antioxidant activity than BHA and Trolox in FRAP assay

Compound: O=c1[nH]cc(F)c(=O)[nH]1 [5-fluorouracil]
- inhibition in cell growth [6]: 12.6%

Compound: C=C1CC(O)CC(C)(C)C1/C=C/C(C)=C/C(=O)O (stereo not drawn) [(2E,4E)-4′-Hydroxy-γ-ionylideneacetic acid]
- reducing power [5]: weak reducing power

Compound: C=C1CCCC(C)(C)C1/C=C/C(C)=C/C(=O)O (stereo not drawn) [(2E,4E)-γ-Ionylideneacetic acid]
- reducing power [5]: weak reducing power

Compound: C=C1CCCC(C)(C)C1C=CC(C)=CC(=O)O (stereo not drawn) [( +)-γ-ionylideneacetic acid]
- antimicrobial activity [2]: did not show any detectable activities

Compound: C=C(CC[C@@H](C)[C@H]1CC[C@@]2(O)C3=C(C(=O)C[C@]12C)[C@@]1(C)CCC(=O)[C@@H](C)[C@@H]1CC3=O)C(C)C(=O)OCC (stereo partly drawn) [Antcamphin Z]
- cytotoxicity [7]: potent cytotoxic activities
- effect on normal cells [8]: no significant effects on normal cells

Compound: O=C(O)/C=C/c1ccc(O)c(O)c1 [Caffeic acid, caffeic acid]
- antioxidant activity [5]: Potent antioxidant activity, with higher antioxidant activity than BHA and Trolox in FRAP assay

Compound: C=C(CC[C@@H](C(=O)O)[C@H]1CC[C@@]2(C)C3=C(CC[C@]12C)[C@@]1(C)CC[C@H](O)C(C)(C)[C@@H]1CC3)C(C)C [Eburicoic acid]
- AMPK phosphorylation, Akt, membrane GLUT4 [9]: Increase AMPK phosphorylation, Akt, and membrane GLUT4 level
- PPAR-α expression in the liver [10]: Increased expression of PPAR-α in the liver which facilitated fatty acid oxidation and the reduction of lipid levels

Compound: O=c1cc(O)cc(/C=C/c2ccc(O)c(O)c2)o1 [Hispidin, hispidin]
- ACE2 gene expression [11]: Reduced the expression of angiotensin-converting enzyme 2 (ACE2) gene
- highest ROS scavenging activity [12]: 10–70 uM had notable reactive oxygen species (ROS) scavenging activity in a dose-dependent manner, with the highest activity being 65%
- highest ROS scavenging activity ([12]; listed as hispidin): about 65%
- lipid accumulation [13]: Significant reduction in lipid accumulation

Compound: CC(C)=CC[C@@H](O)[C@@H](C)[C@H]1CC[C@@]2(C)C3=C(CC[C@]12C)[C@@]1(C)CC[C@H](O)C(C)(C)[C@@H]1CC3 [Inotodiol]
- anti-proliferative activity [14]: anti-proliferative activities
- NO inhibition [15]: NO-inhibiting effects

Compound: CCOC(=O)C1=C[C@@H](OC(CC)CC)[C@H](NC(C)=O)[C@@H](N)C1 [Oseltamivir, reference compound]
- IC50 [4]: 64 µM

Compound: O=c1oc(/C=C/c2ccc(O)c(O)c2)cc2oc(-c3ccc(O)c(O)c3)cc12 [Phellifuropyranone A]
- antiproliferative activity [16]: antiproliferative activity

Compound: CC1=CC[C@@H]([C@@](C)(O)[C@@H]2C[C@H]2C(C)(C)O)CC1 [Phellilane L]
- antimicrobial activity [2]: antimicrobial activities

Compound: C/C=C(\CO)CC[C@@H](C)[C@H]1CC[C@H]2C3=C(C(=O)C[C@]12C)[C@@]1(C)CC[C@@H](O)[C@](C)(O)[C@@H]1C[C@@H]3O [antcamphorol C]
- cytotoxicity [17]: cytotoxic activities

Compound: C=C(CC[C@@H](C)[C@H]1CC[C@H]2C3=CC[C@H]4[C@H](C)[C@@H](O)CC[C@]4(C)C3=C[C@@H](O)[C@]12C)C(C)C [antcamphorol H]
- cytotoxicity [17]: cytotoxic activities

Compound: C=C(CC[C@@H](C)[C@H]1CC[C@H]2C3=C(C(=O)C[C@]12C)[C@@]1(C)CCC(=O)[C@@H](C)[C@@H]1C[C@H]3O)C(C)C [antcamphorol J]
- ROS scavenging [18]: ROS scavenging abilities

Compound: C=C(C)[C@@H]1CC[C@]2(CO)CC[C@]3(C)[C@H](CC[C@@H]4[C@@]5(C)CC[C@H](O)C(C)(C)[C@@H]5CC[C@]43C)[C@@H]12 [betulin]
- proliferation [19]: inhibited the proliferation

Compound: C=C(C)[C@@H]1CC[C@]2(C(=O)O)CC[C@]3(C)[C@H](CC[C@@H]4[C@@]5(C)CC[C@H](O)C(C)(C)[C@@H]5CC[C@]43C)[C@@H]12 [betulinic acid]
- proliferation [19]: inhibited the proliferation

Compound: COC1=C(OC)C(=O)C(C)=CC1=O [coenzyme Q0, 2,3-dimethoxy-5-methyl-1,4-benzoquinone]
- apoptosis and autophagic cell death [20]: inducing apoptosis and autophagic cell death
- apoptosis and autophagic cell death [21]: inducing apoptosis and autophagic cell death

Compound: CC1=CC(=O)[C@H](c2c(O)cc(/C=C/c3ccc(O)c(O)c3)oc2=O)[C@@H](c2ccc(O)c(O)c2)O1 [davallialactone]
- aldose reductase inhibition [22]: capable of inhibiting aldose reductase

Compound: O=c1oc2c(O)c(O)cc3c(=O)oc4c(O)c(O)cc1c4c23 [ellagic acid]
- aldose reductase inhibition [22]: capable of inhibiting aldose reductase

Compound: CC(C)(O)[C@H]1CC[C@H]([C@H]2CC[C@@]3(C)C4=C(CC[C@]23C)[C@@]2(C)CC[C@H](O)C(C)(C)[C@@H]2CC4)[C@H]1O [inonotsutriol A]
- NO inhibition [15]: NO-inhibiting effects

Compound: C[C@H](/C=C/C=O)[C@H]1CC[C@@]2(C)C3=C(CC[C@]12C)[C@@]1(C)CC[C@H](O)C(C)(C)[C@@H]1CC3 [inonotusane C]
- cytotoxicity [23]: cytotoxic activities

Compound: CC1=CC(=O)C2(O1)c1c(cc(/C=C/c3ccc(O)c(O)c3)oc1=O)OC2c1ccc(O)c(O)c1 (stereo not drawn) [inoscavin A]
- cell viability [24]: improve cell viabilities

Compound: C=C1CCCC(C)(C)[C@H]1[C@H]1O[C@@H]1/C(C)=C/C(=O)O [phellidene E]
- antimicrobial activity [2]: did not show any detectable activities

Compound: O=C1C=C(/C=C/c2ccc(O)c(O)c2)OC12C(c1cc3oc(=O)c4cc(O)c(O)cc4c3c(=O)o1)=Cc1cc(O)c(O)cc12 (stereo not drawn) [phelligridin G]
- antiproliferative activity [16]: antiproliferative activity

Compound: CC(C)(C)c1cc(O)ccc1O [tert-Butylhydroquinone (TBHQ), tert-Butylhydroquinone]
- EC50 [25]: 11.2 µg/mL (≈ 67.4 µM)

Compound: CC(C)=CCC[C@@H](C(=O)O)[C@H]1CC[C@@]2(C)C3=C(CC[C@]12C)[C@@]1(C)CC[C@H](O)C(C)(C)[C@@H]1CC3 [trametenolic acid]
- anti-proliferative activity [14]: anti-proliferative activities
- NO inhibition [15]: NO-inhibiting effects

Compound: O=C1O[C@H]([C@@H](O)CO)C(O)=C1O [vitamin C, ascorbic acid]
- EC50 [25]: 6 µg/mL (≈ 34.1 µM)

Compound: antcamphorol G
- ROS scavenging [18]: ROS scavenging abilities

Compound: antcamphorol I
- ROS scavenging [18]: ROS scavenging abilities

Compound: antroquinonol Y
- cytotoxicity [7]: significant cytotoxic effects
- effect on normal cells [8]: without affecting normal cells

Compound: inonotusol I
- interaction with iNOS protein [26]: capable of interacting with inducible-nitric oxide synthase (iNOS) protein

Compound: inonotusol L
- interaction with iNOS protein [26]: capable of interacting with inducible-nitric oxide synthase (iNOS) protein

Compound: phellilane H
- reducing power [5]: weak reducing power
- antimicrobial activity [2]: did not show any detectable activities
